Results: patent publication US20230271968A1, “PYRAZOLOPYRIMIDINE COMPOUND USED AS ATR KINASE INHIBITOR” (priority 2020, published 2023)
Like-named read-outs stand apart in the source and are kept apart here.

How the values were obtained:
[1] = target: ATR kinase (Homo sapiens (Human), UniProt Q13535); experiment: Assay of ATR kinase activity (time-resolved fluorescence, phosphorylation of p53-derived protein); assay type: biochemical; settings: ATR/ATRIP, p53 substrate, 30 minutes at room temperature
Procedure: The amount of phosphorylated protein was determined by time-resolved fluorescence in this assay. The amount of phosphorylated protein was detected by anti-p53-phospho-(serine 15)-K-specific antibody (Cisbio, art. No.: 61GSTDLA) and d2 labeled anti-GST antibody (Cisbio, art. No. 61P08KAE). […] The reagents used above were purchased from Sigma or Invitrogen, except for those whose manufacturers were mentioned.
Operations were as Follows
4×p53 substrate working solution (40 nM) was prepared with 1×reaction buffer, and 2.5 μL of the 4×p53 substrate working solution was added to a 384-well analysis plate. […] 4×ATP working solution (2 mM) was prepared with deionized water, and 2.5 μL of the 4×ATP working solution was added to a 384-well analysis plate. The plates were incubated at room temperature in dark for 30 minutes. […] Finally, 5 μL of assay mixture (0.084 ng/μL Anti-phospho-p53 (ser15)-K and 5 ng/μL Anti-GST-d2) was added to the 384 well analysis plates, and incubated at room temperature overnight. The fluorescence signal was detected with ENVISION (Perkinelmer) instrument (excitation wavelength: 320 nm, emission wavelength: 665 nm and 615 nm). […] IC50 values of compounds were calculated by standard software for parameter fitting (GraphPad Prism 6.0).

[2] = system: TOV21G (ovarian cancer) cells; experiment: Cell proliferation inhibition in vitro, CellTiter-Glo luminescence, TOV21G; assay type: cell-based, human; settings: read-out: TOV21G/IC50/μM
Procedure: (§1) By detecting the effect of compounds on cell activity in vitro in tumor cell lines TOV21G (ovarian cancer) and MV4-11 (leukemia), the inhibitory effect of compounds on cell proliferation was studied in this assay.
(§2) TOV21G cells and MV4-11 cells were purchased from American Type Culture Collection (ATCC).
About 1000 cells were inoculated in each well of a 96-well culture plate, and cultured for 24 hours. Different concentrations (0-10 μM) of compounds to be assayed were added to treat the cells. Each group was assayed in triplicate. Blank wells (containing medium only) and control wells (inoculated cells without being treated with drug) were set. Cells were cultured for 120 hours. 40 μL of Cell Titer-Glo solutions (Promega, #G7573) were added to each well, and the cells were incubated with shaking for 20 min in the dark.
(§3) Inhibition rate (%)=100%×(control well−assay well)/(control well−blank well)

[3] = system: MV4-11 (leukemia) cells; experiment: Cell proliferation inhibition in vitro, CellTiter-Glo luminescence, MV4-11; assay type: cell-based, human; settings: MV4-11 cells, 120 hours
Procedure: as §1, §2
MV-4-11 cells were cultured in IMDM medium (containing 20% of FBS). About 10,000 cells were inoculated in each well of a 96-well culture plate, and treated by adding different concentrations (0-10 μM) of compounds to be assayed. Each group was assayed in triplicate. Blank wells (containing medium only) and control wells (inoculated cells without being treated with drug) were set. Cells were cultured for 120 hours. 40 μL of Cell Titer-Glo solutions were added to each well, and the cells were incubated with shaking for 20 min in the dark. 100 μL of solution was transferred from each well to a 96-well blank plate, and the luminescence value was read by Biotek Synergy H1 multifunctional microplate reader.
as §3

[4] = target: PI3Kα (Homo sapiens (Human), UniProt P42336); experiment: Kinase selectivity: inhibitory activity against PI3Kα; assay type: biochemical; settings: 3-fold serial dilution from 10 μM to 0.51 nM, 10 concentrations
Procedure: (§4) The compounds of the present disclosure were assayed for inhibition of the same family (ATM, DNA-PK, PI3K, mTOR): […]

[5] = target: PI3Kδ (Homo sapiens (Human), UniProt O00329); experiment: Kinase selectivity: inhibitory activity against PI3Kδ; assay type: biochemical; settings: 3-fold serial dilution from 10 μM to 0.51 nM, 10 concentrations
Procedure: as §4

[6] = In vitro stability assay in human liver microsome; assay type: in vitro ADME; settings: human liver microsomes, compound 2.0 nM, with or without NADPH, within 60 minutes of incubation; read-out: Human liver microsome t1/2
Procedure: (§5) The compounds of the present disclosure were subjected to stability assay in liver microsome. The compound to be assayed (with a final concentration of 2.0 nM) was co-incubated with human/mouse liver microsomes with or without the addition of NADPH. The concentration of the compound in the supernatant was determined within 60 minutes of incubation.

[7] = target: mTOR (Homo sapiens (Human), UniProt P42345); experiment: Kinase selectivity: inhibitory activity against mTOR; assay type: biochemical; settings: 3-fold serial dilution from 10 μM to 0.51 nM, 10 concentrations
Procedure: as §4

[8] = target: DNA-PK (Homo sapiens (Human), UniProt P78527); experiment: Kinase selectivity: inhibitory activity against DNA-PK; assay type: biochemical; settings: 3-fold serial dilution from 10 μM to 0.51 nM, 10 concentrations; read-out: IC50/DNAPK
Procedure: as §4

[9] = target: ATM (Homo sapiens (Human), UniProt Q13315); experiment: Kinase selectivity: inhibitory activity against ATM; assay type: biochemical; settings: 3-fold serial dilution from 10 μM to 0.51 nM, 10 concentrations
Procedure: as §4

[10] = In vitro stability assay in mouse liver microsome; assay type: in vitro ADME; settings: mouse liver microsomes, compound 2.0 nM, with or without NADPH, within 60 minutes of incubation; read-out: Mouse liver microsome t1/2
Procedure: as §5

[11] = In vivo pharmacokinetics in male ICR mice, oral gavage; settings: mouse, 10 mg/kg, plasma
Procedure: In vivo pharmacokinetic studies were performed on the compounds of the present disclosure.
Male ICR mice (3 mice/group) were administered orally by gavage at a dose of 10 mg/kg. The plasma samples were collected before administration (0 h) and after administration (0.25, 0.5, 1, 2, 4, 6, 8, 24 h). The collected samples were subjected to LC/MS/analysis, and the data were collected. The relevant pharmacokinetic parameters were calculated by Analyst v1.6.2 (AB Applied Biosystems Company, USA) software using the collected analytical data.

[12] = Homo sapiens, TOV21G cells, 120 hours, CellTiter-Glo
[13] = TOV21G cells, 120 hours, CellTiter-Glo

ATR kinase, sequence (Q13535 whole entry, looked up): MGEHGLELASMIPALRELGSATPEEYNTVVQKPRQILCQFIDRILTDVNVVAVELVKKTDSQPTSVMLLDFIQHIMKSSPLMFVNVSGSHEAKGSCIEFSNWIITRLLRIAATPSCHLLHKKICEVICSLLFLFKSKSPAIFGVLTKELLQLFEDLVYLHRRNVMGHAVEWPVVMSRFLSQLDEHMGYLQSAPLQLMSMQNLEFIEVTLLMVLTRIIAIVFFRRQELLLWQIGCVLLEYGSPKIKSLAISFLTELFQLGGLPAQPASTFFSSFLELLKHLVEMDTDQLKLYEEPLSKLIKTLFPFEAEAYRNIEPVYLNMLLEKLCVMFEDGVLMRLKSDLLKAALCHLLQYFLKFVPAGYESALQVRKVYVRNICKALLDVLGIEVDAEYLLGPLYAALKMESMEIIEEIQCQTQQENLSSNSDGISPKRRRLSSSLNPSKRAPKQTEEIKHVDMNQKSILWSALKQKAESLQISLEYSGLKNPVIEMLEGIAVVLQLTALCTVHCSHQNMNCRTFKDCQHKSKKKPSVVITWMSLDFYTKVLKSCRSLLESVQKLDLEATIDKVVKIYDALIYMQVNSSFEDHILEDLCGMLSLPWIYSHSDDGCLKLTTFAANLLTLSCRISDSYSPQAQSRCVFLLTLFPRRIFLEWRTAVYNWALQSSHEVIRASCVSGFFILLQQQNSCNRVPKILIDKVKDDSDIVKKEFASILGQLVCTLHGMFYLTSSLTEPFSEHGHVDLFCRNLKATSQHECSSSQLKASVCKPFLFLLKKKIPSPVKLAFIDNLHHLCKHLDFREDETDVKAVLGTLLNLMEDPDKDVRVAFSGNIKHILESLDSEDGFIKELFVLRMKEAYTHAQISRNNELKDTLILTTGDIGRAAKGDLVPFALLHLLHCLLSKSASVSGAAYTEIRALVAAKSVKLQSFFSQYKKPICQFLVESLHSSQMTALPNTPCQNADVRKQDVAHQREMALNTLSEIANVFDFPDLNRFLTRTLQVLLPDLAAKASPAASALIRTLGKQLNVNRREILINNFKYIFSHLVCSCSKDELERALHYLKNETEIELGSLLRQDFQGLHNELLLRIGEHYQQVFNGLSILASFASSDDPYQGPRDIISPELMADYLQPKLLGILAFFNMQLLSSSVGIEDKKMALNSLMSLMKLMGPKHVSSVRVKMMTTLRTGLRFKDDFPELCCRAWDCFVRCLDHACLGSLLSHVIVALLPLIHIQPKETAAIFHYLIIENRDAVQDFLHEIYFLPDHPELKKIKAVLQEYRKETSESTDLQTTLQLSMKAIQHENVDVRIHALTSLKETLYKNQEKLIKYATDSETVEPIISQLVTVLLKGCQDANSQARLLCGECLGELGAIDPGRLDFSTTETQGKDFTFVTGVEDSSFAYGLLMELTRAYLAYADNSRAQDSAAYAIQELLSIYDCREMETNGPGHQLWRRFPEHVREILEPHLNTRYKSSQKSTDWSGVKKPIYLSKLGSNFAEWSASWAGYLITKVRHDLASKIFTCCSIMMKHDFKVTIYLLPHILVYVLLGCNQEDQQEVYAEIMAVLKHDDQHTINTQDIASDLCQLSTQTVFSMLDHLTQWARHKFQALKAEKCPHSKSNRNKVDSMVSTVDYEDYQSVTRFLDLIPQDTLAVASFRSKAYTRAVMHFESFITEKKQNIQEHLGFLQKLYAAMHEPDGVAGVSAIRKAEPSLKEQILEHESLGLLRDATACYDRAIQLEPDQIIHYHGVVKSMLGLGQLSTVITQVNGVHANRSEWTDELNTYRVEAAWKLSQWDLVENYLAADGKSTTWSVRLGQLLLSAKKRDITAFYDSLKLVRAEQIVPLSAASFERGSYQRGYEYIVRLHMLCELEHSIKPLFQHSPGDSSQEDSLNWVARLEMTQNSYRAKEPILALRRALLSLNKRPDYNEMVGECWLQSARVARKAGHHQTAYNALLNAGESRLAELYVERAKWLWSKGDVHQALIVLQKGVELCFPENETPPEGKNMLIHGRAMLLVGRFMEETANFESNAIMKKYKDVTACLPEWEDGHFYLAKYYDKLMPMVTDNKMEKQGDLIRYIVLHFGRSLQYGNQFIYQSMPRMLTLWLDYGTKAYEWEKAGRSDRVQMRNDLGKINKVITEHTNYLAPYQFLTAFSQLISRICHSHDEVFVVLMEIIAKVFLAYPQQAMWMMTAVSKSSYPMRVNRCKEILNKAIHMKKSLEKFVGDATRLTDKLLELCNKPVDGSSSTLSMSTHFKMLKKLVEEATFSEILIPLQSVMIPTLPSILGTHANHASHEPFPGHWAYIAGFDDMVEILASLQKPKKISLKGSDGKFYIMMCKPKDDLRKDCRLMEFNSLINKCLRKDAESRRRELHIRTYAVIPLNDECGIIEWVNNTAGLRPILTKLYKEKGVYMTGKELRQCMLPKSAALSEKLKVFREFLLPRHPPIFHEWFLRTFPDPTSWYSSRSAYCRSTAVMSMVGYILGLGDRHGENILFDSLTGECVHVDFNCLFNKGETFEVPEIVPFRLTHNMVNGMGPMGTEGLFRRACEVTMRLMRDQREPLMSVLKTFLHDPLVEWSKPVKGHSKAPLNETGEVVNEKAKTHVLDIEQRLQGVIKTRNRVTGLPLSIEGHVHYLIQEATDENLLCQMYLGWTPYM
ATR kinase, sequence (Q8WXE1 whole entry partner, looked up): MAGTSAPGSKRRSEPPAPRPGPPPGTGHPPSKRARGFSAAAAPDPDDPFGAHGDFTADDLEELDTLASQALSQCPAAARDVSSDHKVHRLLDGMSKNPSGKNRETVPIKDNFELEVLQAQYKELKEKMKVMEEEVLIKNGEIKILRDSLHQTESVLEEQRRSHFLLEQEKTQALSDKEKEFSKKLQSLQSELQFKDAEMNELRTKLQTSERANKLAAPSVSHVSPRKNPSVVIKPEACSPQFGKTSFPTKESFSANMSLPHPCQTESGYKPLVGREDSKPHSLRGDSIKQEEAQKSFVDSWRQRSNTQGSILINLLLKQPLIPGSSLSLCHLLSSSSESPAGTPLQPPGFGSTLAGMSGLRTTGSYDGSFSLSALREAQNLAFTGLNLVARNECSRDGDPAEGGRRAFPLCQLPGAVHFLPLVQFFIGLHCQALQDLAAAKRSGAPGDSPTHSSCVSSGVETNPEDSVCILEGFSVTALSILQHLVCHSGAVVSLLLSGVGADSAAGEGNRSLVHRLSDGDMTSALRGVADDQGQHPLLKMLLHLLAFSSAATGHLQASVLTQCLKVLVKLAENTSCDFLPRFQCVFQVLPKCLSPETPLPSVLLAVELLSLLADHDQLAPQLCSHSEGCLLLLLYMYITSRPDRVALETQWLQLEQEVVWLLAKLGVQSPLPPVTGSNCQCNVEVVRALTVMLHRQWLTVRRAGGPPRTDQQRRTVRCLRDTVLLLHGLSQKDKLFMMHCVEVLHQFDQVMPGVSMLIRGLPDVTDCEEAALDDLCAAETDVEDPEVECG

| SMILES | IC50 [1] | IC50 [2, 12] | IC50 ([3]; Homo sapiens) | IC50 [2, 13] | IC50 [3] | further results |
| --- | --- | --- | --- | --- | --- | --- |
| Cc1nn(C2CCNCC2)c(C(F)(F)F)c1-c1cc(N2CCOC[C@H]2C)nc2c(-c3ccn[nH]3)cnn12 [Compound A1] | 70 nM | 0.66 µM | 0.66 µM | – | – | – |
| Cc1c(-c2cc(N3CCOC[C@H]3C)nc3c(-c4ccn[nH]4)cnn23)c(C(F)(F)F)nn1C1CCNCC1 [Compound A2] | 33 nM | 0.83 µM | 0.78 µM | – | – | – |
| Cc1nn(C2CCNCC2)c(C)c1-c1cc(N2CCOC[C@H]2C)nc2c(-c3ccn[nH]3)cnn12 [Compound A3] | 184 nM | – | – | – | – | – |
| Cc1noc(C)c1-c1cc(N2CCOC[C@H]2C)nc2c(-c3ccn[nH]3)cnn12 [Compound A4] | 74 nM | 1.05 µM | 0.75 µM | – | – | – |
| Cc1nn(C2CCNCC2)c(C(F)(F)F)c1-c1cc(N2CCOC[C@H]2C)nc2c(-c3ccccn3)cnn12 [Compound A6] | 17 nM | – | – | – | – | – |
| Cc1nn(C2CCNCC2)c(C(F)(F)F)c1-c1cc(N2CCOC[C@H]2C)nc2c(-c3cccs3)cnn12 [Compound A7] | 12 nM | – | – | – | – | – |
| Cc1nnn(C)c1-c1cc(N2CCOC[C@H]2C)nc2c(-c3ccn[nH]3)cnn12 [Compound A8] | 84 nM | – | – | 0.78 µM | 0.68 µM | – |
| Cc1nn(-c2cncc(F)c2)c(C)c1-c1cc(N2CCOC[C@H]2C)nc2c(-c3ccn[nH]3)cnn12 [Compound A9] | 2 nM | – | 0.25 µM | – | – | IC50 [4]: 4060 nM; IC50 [5]: 1130 nM; half-life at 2 nM [6]: 1.43 h; IC50 [7]: 1830 nM; IC50 [8]: 303 nM; IC50 ([2]; Homo sapiens, TOV21G, 120 h): 0.28 µM; IC50 [9]: 6370 nM; half-life at 2 nM [10]: 3.63 h; AUC [11]: 6950 ng·h/mL; Cmax [11]: 1810 ng/mL; Tmax [11]: 0.25 h; half-life [11]: 3.3 h |
| Cc1nn(-c2cncc(C(F)F)c2)c(C)c1-c1cc(N2CCOC[C@H]2C)nc2c(-c3ccn[nH]3)cnn12 [Compound A10] | 3 nM | – | 0.27 µM | – | – | half-life at 2 nM [6]: 0.6 h; IC50 [8]: 1260 nM; IC50 ([2]; Homo sapiens, TOV21G, 120 h): 0.3 µM; IC50 [9]: 4120 nM; half-life at 2 nM [10]: 2.7 h; AUC [11]: 14300 ng·h/mL; Cmax [11]: 4890 ng/mL; Tmax [11]: 0.25 h; half-life [11]: 1.76 h |
| Cc1nn(-c2cncc(C#N)c2)c(C)c1-c1cc(N2CCOC[C@H]2C)nc2c(-c3ccn[nH]3)cnn12 [Compound A11] | – | 0.38 µM | 0.5 µM | – | – | – |
| Cc1nn(-c2cncc(Cl)c2)c(C)c1-c1cc(N2CCOC[C@H]2C)nc2c(-c3ccn[nH]3)cnn12 [Compound A12] | 2 nM | 0.33 µM | 0.26 µM | – | – | AUC [11]: 8330 ng·h/mL; Cmax [11]: 2270 ng/mL; Tmax [11]: 0.33 h; half-life [11]: 1.98 h |
| Cc1nn(-c2ccnnc2)c(C)c1-c1cc(N2CCOC[C@H]2C)nc2c(-c3ccn[nH]3)cnn12 [Compound A13] | 2 nM | 0.21 µM | 0.28 µM | – | – | – |
| Cc1nn(-c2ccc(=O)[nH]c2)c(C)c1-c1cc(N2CCOC[C@H]2C)nc2c(-c3ccn[nH]3)cnn12 [Compound A14] | 3 nM | – | – | – | – | – |
| Cc1nn(C(=O)N2CCNCC2)c(C)c1-c1cc(N2CCOC[C@H]2C)nc2c(-c3ccn[nH]3)cnn12 [Compound A15] | 13 nM | – | – | 0.27 µM | 0.45 µM | – |
| Cc1nn(C2CCNC[C@H]2F)c(C)c1-c1cc(N2CCOC[C@H]2C)nc2c(-c3ccn[nH]3)cnn12 (some centres unmarked) [Compound A16-II] | 31 nM | – | – | 0.52 µM | 0.57 µM | – |
| Cc1nn(C2CCNC[C@@H]2F)c(C)c1-c1cc(N2CCOC[C@H]2C)nc2c(-c3ccn[nH]3)cnn12 (some centres unmarked) [Compound A16-I] | 33 nM | – | – | 1.4 µM | 0.89 µM | – |
| Cc1nn(-c2cncc(C(N)=O)c2)c(C)c1-c1cc(N2CCOC[C@H]2C)nc2c(-c3ccn[nH]3)cnn12 [Compound A17] | 3 nM | – | – | 1.29 µM | 0.85 µM | – |
| Cc1nn(CCO)c(C)c1-c1cc(N2CCOC[C@H]2C)nc2c(-c3ccn[nH]3)cnn12 [Compound A18] | 8 nM | – | – | 0.56 µM | 0.74 µM | – |
| Cc1nn(-c2cncc(O)c2)c(C)c1-c1cc(N2CCOC[C@H]2C)nc2c(-c3ccn[nH]3)cnn12 [Compound A19] | 4 nM | – | – | 0.66 µM | 0.6 µM | – |
| C[C@@H]1COCCN1c1cc(C2(O)CCOCC2)n2ncc(-c3ccn[nH]3)c2n1 [Compound A20] | 188 nM | – | – | 0.73 µM | 0.92 µM | – |
| C[C@@H]1COCCN1c1cc(-c2cccnc2C(F)(F)F)n2ncc(-c3ccn[nH]3)c2n1 [Compound A21] | 52 nM | 0.63 µM | 0.74 µM | – | – | – |
| Cc1nn(-c2cccnc2)c(C)c1-c1cc(N2CCOC[C@H]2C)nc2c(-c3ccn[nH]3)cnn12 [Compound A22] | 2 nM | 0.19 µM | 0.23 µM | – | – | – |
| Cc1cncc(-n2nc(C)c(-c3cc(N4CCOC[C@H]4C)nc4c(-c5ccn[nH]5)cnn34)c2C)c1 [Compound A23] | 4 nM | 0.26 µM | 0.3 µM | – | – | – |
| Cc1nn(-c2ccncc2)c(C)c1-c1cc(N2CCOC[C@H]2C)nc2c(-c3ccn[nH]3)cnn12 [Compound A24] | 2 nM | 0.15 µM | 0.23 µM | – | – | – |
